From patent US20050112573A1, “Method of detecting toxic substance” (priority 2001, published 2005)

Tested on: yeast genes (level of expressed mRNA)
Assay: DNA chip analysis of expressed mRNA of yeast genes after 2 h culture with a toxic chemical substance
Assay type: cell-based, Saccharomyces cerevisiae S288C
Experimental: Yeast (Saccharomyces cerevtisiae S288C (α SUC2mal mel gap2 CUP1)) were cultured at 25° C. on YPD medium (yeast extract 1%, polypepton 2%, glucose 2%). One of toxic chemical substances was added to the cell at logarithmic growth phase, and the cell was further cultured for two hours. Cell was cultured without any chemical substance in the same condition, and was used as control. Concentrations of the chemical substances were defined to inhibit the growth of the yeast but not lead to death.
After the completion of cultivation, the culture was centrifuged to collect the cells. To the cells, sodium acetate buffer (50 mM sodium acetate, 10 mM EDTA, 1% SDS) was added, and the mixture was shaken at 65° C. for five minutes, followed by returning to room temperature, and obtaining the supernatant, which procedure was repeated two times. To the supernatant, ½ amount of a solution of phenol/chloroform was added, and the mixture was centrifuged to give a supernatant, which was added with an equal amount of chloroform, and the mixture was centrifuged to give a supernatant. To the supernatant, an equal amount of isopropanol containing 0.3 M sodium acetate was added, and the mixture was allowed to stand at room temperature for 30 minutes, after which the mixture was centrifuged to give a sediment of the whole RNAs. Seventy % ethanol was added to the sediment, and the mixture was again centrifuged to give a sediment, which was then dried and dissolved in water. mRNA was isolated from the whole RNAs as followings. In view of the fact that a poly A chain is attached to the 3′ terminus of mRNA, a polynucleotide having a poly T structure which was immobilized on the surface of latex beads was used to trap the mRNA, and then the mRNA was washed and eluted with spine column (Oligotex-dT30<Super>mRNA Purification Kit, Takara). Reverse transcription of the mRNA was conducted with a reverse transcriptase (Super Script II Reverse Transcriptase; catalogue No. 18064-014, GibcoBRL) using fluorescence-labeled nucleotides to give cDNAs that were introduced with Cy3-dUTP or Cy5-dUTP during the reverse transcription.
The labeled cDNAs were dissolved in TE buffer (10 mM Tris-HCl/1 mM EDTA, pH8.0), and the solution was dropped on the DNA chip containing the whole genes of yeast (DNA Chip Research Inc. Japan) so that the cDNAs were hybridized on the DNA chip at 65° C. for over 12 hours. The fluoresces intensity of the DNA chip was read with a scanner, and the ratio relative to the fluorescence intensity resulting from the absence of chemical substance was estimated as the following, which is shown in Tables 1 to 9: [formula]
In the Tables, “Intensity” indicated in the rightmost column is a value of the level of expressed mRNA of each gene in control cells as divided by the average level of the expressions of the whole genes.

SMILES: CCCCC[C@H](O)CC(=O)CCc1ccc(O)c(OC)c1 [(13), gingerol]
- level of expressed mRNA in the presence of chemical substance/in its absence (gene YAL012W): 1.1
- The level of expressed mRNA in the presence of chemical substance/absence: YAL014C (gene YAL014C): 1.5
- The level of expressed mRNA in the presence of chemical substance/absence: YAL017W (gene YAL017W): 2.2
- The level of expressed mRNA in the presence of chemical substance/absence: YAL018C (gene YAL018C): 1.3
- level of expressed mRNA in the presence of chemical substance/in its absence (gene YAL038W): 1.8
- level of expressed mRNA in the presence of chemical substance/in its absence (gene YAL044C): 1.1
- The level of expressed mRNA in the presence of chemical substance/absence: YAL049C (gene YAL049C): 1.6
- level of expressed mRNA in the presence of chemical substance/in its absence (gene YAL054C): 1.8
- The level of expressed mRNA in the presence of chemical substance/absence: YAR047C (gene YAR047C): 1.4
- The level of expressed mRNA in the presence of chemical substance/absence: YAR064W (gene YAR064W): 1.1
- level of expressed mRNA in the presence of chemical substance/in its absence (gene YAR071W): 0.3
- level of expressed mRNA in the presence of chemical substance/in its absence (gene YBL001C): 1.0
- The level of expressed mRNA in the presence of chemical substance/absence: YBL044W (gene YBL044W): 0.7
- The level of expressed mRNA in the presence of chemical substance/absence: YBL100C (gene YBL100C): 0.9
- The level of expressed mRNA in the presence of chemical substance/absence: YBR012C (gene YBR012C): 2.1
- The level of expressed mRNA in the presence of chemical substance/absence: YBR013C (gene YBR013C): 2.0
- level of expressed mRNA in the presence of chemical substance/in its absence (gene YBR014C): 0.9
- level of expressed mRNA in the presence of chemical substance/in its absence (gene YBR023C): 0.5
- level of expressed mRNA in the presence of chemical substance/in its absence (gene YBR029C): 1.7
- level of expressed mRNA in the presence of chemical substance/in its absence (gene YBR035C): 1.8
- level of expressed mRNA in the presence of chemical substance/in its absence (gene YBR050C): 1.3
- The level of expressed mRNA in the presence of chemical substance/absence: YBR051W (gene YBR051W): 1.2
- The level of expressed mRNA in the presence of chemical substance/absence: YBR063C (gene YBR063C): 1.7
- The level of expressed mRNA in the presence of chemical substance/absence: YBR066C (gene YBR066C): 0.6
- level of expressed mRNA in the presence of chemical substance/in its absence (gene YBR068C): 2.2
- level of expressed mRNA in the presence of chemical substance/in its absence (gene YBR111C): 1.6
- The level of expressed mRNA in the presence of chemical substance/absence: YBR124W (gene YBR124W): 0.9
- level of expressed mRNA in the presence of chemical substance/in its absence (gene YBR126C): 2.1
- The level of expressed mRNA in the presence of chemical substance/absence: YBR129C (gene YBR129C): 1.3
- level of expressed mRNA in the presence of chemical substance/in its absence (gene YBR145W): 2.0
- The level of expressed mRNA in the presence of chemical substance/absence: YBR162C (gene YBR162C): 0.7
- level of expressed mRNA in the presence of chemical substance/in its absence (gene YBR183W): 1.4
- level of expressed mRNA in the presence of chemical substance/in its absence (gene YBR222C): 1.6
- The level of expressed mRNA in the presence of chemical substance/absence: YBR255W (gene YBR255W): 1.4
- The level of expressed mRNA in the presence of chemical substance/absence: YBR281C (gene YBR281C): 1.2
- The level of expressed mRNA in the presence of chemical substance/absence: YBR287W (gene YBR287W): 3.4
- level of expressed mRNA in the presence of chemical substance/in its absence (gene YBR299W): 0.7
- level of expressed mRNA in the presence of chemical substance/in its absence (gene YCL009C): 1.6
- The level of expressed mRNA in the presence of chemical substance/absence: YCL042W (gene YCL042W): 7.5
- The level of expressed mRNA in the presence of chemical substance/absence: YCL044C (gene YCL044C): 1.7
- The level of expressed mRNA in the presence of chemical substance/absence: YCL056C (gene YCL056C): 1.3
- level of expressed mRNA in the presence of chemical substance/in its absence (gene YCL064C): 1.6
- The level of expressed mRNA in the presence of chemical substance/absence: YCR007C (gene YCR007C): 1.5
- level of expressed mRNA in the presence of chemical substance/in its absence (gene YCR037C): 1.3
- level of expressed mRNA in the presence of chemical substance/in its absence (gene YCR048W): 1.3
- level of expressed mRNA in the presence of chemical substance/in its absence (gene YCR098C): 1.4
- level of expressed mRNA in the presence of chemical substance/in its absence (gene YDL022W): 1.5
- The level of expressed mRNA in the presence of chemical substance/absence: YDL046W (gene YDL046W): 1.5
- The level of expressed mRNA in the presence of chemical substance/absence: YDL089W (gene YDL089W): 1.9
- The level of expressed mRNA in the presence of chemical substance/absence: YDL173W (gene YDL173W): 1.7
- The level of expressed mRNA in the presence of chemical substance/absence: YDL193W (gene YDL193W): 1.4
- The level of expressed mRNA in the presence of chemical substance/absence: YDL233W (gene YDL233W): 1.8
- level of expressed mRNA in the presence of chemical substance/in its absence (gene YDR009W): 1.2
- level of expressed mRNA in the presence of chemical substance/in its absence (gene YDR019C): 1.0
- The level of expressed mRNA in the presence of chemical substance/absence: YDR071C (gene YDR071C): 1.3
- The level of expressed mRNA in the presence of chemical substance/absence: YDR078C (gene YDR078C): 1.1
- The level of expressed mRNA in the presence of chemical substance/absence: YDR090C (gene YDR090C): 0.8
